From patent publication US9415017B2, “Bacterial ghosts for mediating innate immunity” (priority 2010, dated 2016) come the findings set out here.

The cell viability is a per cent measure of how many cells are alive, often set against a control.

The subject of series [1] is NO production in RAW 264.7 cells. As to the kind of experiment: nitrite assay (Griess reaction) for NO production. The format is cell-based, murine. The following applies: for impact on BG-induced NO-generation: NO after 20 hours. The method, then:
RAW 264.7 cells were seeded in 96 well plates and were cultured for two days. […] Thereafter, the bacterial ghost suspensions were removed by twice washing with PBS and the cells were incubated for another 20 hours in the dark at 37° C. 5% CO2. In order to investigate the stimulatory impact of pure LPS (Fluka; E. coli serotype 055:B5), long-term incubation experiments with various LPS concentrations were conducted for 20 hours.
As an indicater of NO production, nitrite concentration was measured in the supernatant of the macrophages by use of the Griess reaction (Green et al., 1982 Anal Biochem. 126(1): p. 131-8). In short, 100 μl of each supernatant was mixed with 90 μl 1% sulphanilamide (Fluka) in 5% H3PO4 and 90 μl of N-(1-Naphthyl) ethylene diamine dihydrochloride in water. The absorbance was determined at 550 nm with an ELISA reader (Tecan Sunrise).

For a further series, the system named is RAW 264.7 cells. As to the kind of experiment: neutral red cytotoxicity assay. The format is cell-based, murine. An excerpt:
The neutral red assay was used to test the impact of empty or RV-loaded BGs as well as the chemical per se on the viability of RAW 264.7 cells. Neutral red (3-amino-m-dimethylamino-2methyl-phenazine hydrochloride) selectivly accumulates in lysosomes of living cells (Repetto et al. 2008. Nat Protoc, 2008. 3(7): p. 1125-31) and provides therefore a quantitative assessment of viablitity.
Individual wells of 96-well plates were inoculated with 1.25×10^5 cells and were allowed to attach overnight. Macrophages were treated with 200 μl medium containing RV-loaded and unloaded BGs (all resuspended in sf-medium) in different BG to cell ratios (10, 100, 1000) or with RV alone for either 20 min followed by a 20 hour recovery period or 24 hours. The same conditions were performed with two RV-concentrations (15 μM and 30 μM). Triton X-100 (0.01%) served as a positive control and cells treated with test medium represent the negative control. After treatment, the cells were washed twice with PBS and were incubated either with culture medium for 20 hours or directly with 100 μl of NR (80 μg/ml final concentration) for another two hours (37° C.; 5% CO2). Thereafter, the dye was discarded and the wells were washed two times with PBS. Extraction of the dye was accomplished by addition of 100 μl of the acidic destaining solution (1 ml acetic acid, 73 ml 96% ethanol and 26 ml deionized water). The plates were shaken for 10 min and the developed color was measured by a plate reader (Dynex OpsysMR) at 570 nm (reference wavelength 690 nm).

`Oc1ccc(C=Cc2cc(O)cc(O)c2)cc1` [RV, resveratrol]: the “impact on BG-induced NO-generation” value in series [1] (0.3 μM and 0.3 μM RV with empty BGs at ratio 500, 20 min) is “no impact”; in series [1] (30 μM RV with empty BGs at ratio 500, 20 min), “Statistically significant difference”. For the same molecule, the “reduction of nitrite compared to empty BGs alone” value in series [1] (BG to cell ratio of 100, RV-loaded ghosts or 3 μM RV with empty BGs) is “no effect”. Further, the “reduction of NO compared to empty BGs alone” value in series [1] (MOI of 1000, RV-ghosts or 3 μM RV coevally with empty BGs) is “reduction”. Further, the cell viability entry with RAW 264.7 cells (15 μM RV) is given as “no impact at all”; in the series with RAW 264.7 cells (30 μM RV), 81.23 ± 10.6%; in the series on RAW 264.7 cells (short-term coincubation (20 min, measured after 20 hours)), “no effects”. In the series with RAW 264.7 cells (30 μM RV), the loss of viability was found to be 20%.
